From patent US9914730B2, “Azaquinazoline inhibitors of Atypical protein Kinase C” (Ignyta, Inc., priority 2012, dated 2018)
Where a name gives a salt, the structure may show the parent alone.

Molecular target: T1, full-length human PKCι (Homo sapiens, UniProt P41743)
T1 construct: Recombinant, full-length human PKCι expressed in Sf21 insect cells is also commercially available; purchased; host or cells: Sf21 insect cells
T1 sequence (P41743 1-596): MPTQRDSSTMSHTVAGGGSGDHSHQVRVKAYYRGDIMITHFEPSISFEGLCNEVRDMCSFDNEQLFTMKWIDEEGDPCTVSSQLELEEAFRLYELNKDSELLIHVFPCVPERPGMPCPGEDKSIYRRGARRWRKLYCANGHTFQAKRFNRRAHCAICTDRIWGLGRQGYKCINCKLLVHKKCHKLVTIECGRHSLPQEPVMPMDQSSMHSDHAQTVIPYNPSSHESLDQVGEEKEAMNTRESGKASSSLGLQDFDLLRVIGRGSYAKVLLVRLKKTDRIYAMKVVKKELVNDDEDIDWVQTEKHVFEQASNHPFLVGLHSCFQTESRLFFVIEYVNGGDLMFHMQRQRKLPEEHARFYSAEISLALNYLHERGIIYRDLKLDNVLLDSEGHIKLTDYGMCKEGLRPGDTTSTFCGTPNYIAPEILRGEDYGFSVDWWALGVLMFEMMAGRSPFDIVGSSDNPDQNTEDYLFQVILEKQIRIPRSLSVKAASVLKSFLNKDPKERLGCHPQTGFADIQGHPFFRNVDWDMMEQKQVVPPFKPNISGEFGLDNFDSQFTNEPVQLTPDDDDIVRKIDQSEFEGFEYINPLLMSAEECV
Assay: PKCι IC50 IMAP assay, full-length PKCι at 150 μM ATP
Format: biochemical
Details: read-out: IC50 in IMAP assay against full length PKCi at 150 μM ATP
In short: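 Dose-response IC50 values come from IMAP fluorescence polarisation after 60 min room-temperature turnover of 100 nM FAM peptide by ~15 pM insect-cell-expressed full-length PKCι at 150 μM ATP (5× KM^APP), normalised to no-compound and no-enzyme controls.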

SMILES | IC50 [nM]
N[C@H](CNc1nc(-c2ccncc2)nc2c(Nc3nc[nH]n3)nccc12)Cc1ccccc1 [Example 126, 4-N-[(2S)-2-amino-3-phenylpropyl]-2-(pyridin-4-yl)-8-N-(1H-1,2,4-triazol-3-yl)pyrido[3,4-d]pyrimidine-4,8-diamine] | 100 to 1000
COc1cncc2nc(-c3ccnc(Nc4ccccc4)c3)nc(NCCC(N)=O)c12 [Example 458, 3-[5-Methoxy-2-(2-phenylamino-pyridin-4-yl)-pyrido[3,4-d]pyrimidin-4-ylamino]-propionamide] | 1000 to 10000
c1ccc(Nc2cc(-c3nc(N4CCNCC4)c4ccncc4n3)ccn2)cc1 [Example 494, Phenyl-[4-(4-piperazin-1-yl-pyrido[3,4-d]pyrimidin-2-yl)-pyridin-2-yl]-amine] | 100 to 1000
FC(F)(F)CC1CN(c2nc(-c3ccnc(Nc4ccccc4)c3)nc3cncc(C4CC4)c23)CCN1 (stereo not drawn) [Example 643, [4-{5-Cyclopropyl-4-[3-(2,2,2-trifluoro-ethyl)-piperazin-1-yl]-pyrido[3,4-d]pyrimidin-2-yl}-pyridin-2-yl)-phenyl-amine] | 1000 to 10000
COc1cncc2nc(-c3ccnc(Nc4ccccc4)c3)nc(N3CCN[C@@H](CF)C3)c12 [Example 233, {4-[4-((R)-3-Fluoromethyl-piperazin-1-yl)-5-methoxy-pyrido[3,4-d]pyrimidin-2-yl]-pyridin-2-yl}-phenyl-amine] | 100 to 1000
COc1cncc2nc(-c3ccncc3)nc(N3CCN[C@@H](Cc4ccccc4)C3)c12 [Example 30, (3S)-3-benzyl-1-[5-methoxy-2-(pyridin-4-yl)-pyrido[3,4-d]-pyrimidin-4-yl]-piperazine] | 1000 to 10000
O[C@@H]1CCN(c2nc(-c3ccnc(Nc4ccccc4)c3)nc3cncc(C4CC4)c23)C[C@H]1O (racemic) [Example 676, (+/−)-(trans)-1-[5-Cyclopropyl-2-(2-phenylamino-pyridin-4-yl)-pyrido[3,4-d]pyrimidin-4-yl]-piperidine-3,4-diol] | 100 to 1000
CN(c1nc(-c2ccnc(Nc3ccc4ccccc4n3)c2)nc2cncc(C3CC3)c12)C1CCNCC1 [Example 2138, {5-Cyclopropyl-2-[2-([D4],[D3]uinolin-2-ylamino)-pyridin-4-yl]-pyrido[3,4-d]pyrimidin-4-yl}-methyl-piperidin-4-yl-amine] | < 100
COc1cncc2nc(-c3ccnc(NC(C)=O)c3)nc(N3CCC(O)CC3)c12 [Example 215, N-{4-[4-(4-Hydroxy-piperidin-1-yl)-5-methoxy-pyrido[3,4-d]pyrimidin-2-yl]-pyridin-2-yl}-acetamide] | 100 to 1000
NC(=O)c1cccc(Nc2cc(-c3nc(N[C@@H]4CCNC4)c4ccncc4n3)ccn2)c1 [Example 308, 3-{4-[4-((R)-Pyrrolidin-3-ylamino)-pyrido[3,4-d]pyrimidin-2-yl]-pyridin-2-ylamino}-benzamide] | 100 to 1000
COc1ccc(CC(=O)Nc2cc(-c3nc(N[C@@H]4CCNC4)c4ccncc4n3)ccn2)cc1 [Example 335, 2-(4-Methoxy-phenyl)-N-{4-[4-((R)-pyrrolidin-3-ylamino)-pyrido[3,4-d]pyrimidin-2-yl]-pyridin-2-yl}-acetamide] | 100 to 1000
COc1cncc2nc(-c3ccnc(N)c3)nc(N3CCNCC3)c12 [Example 208, 4-(5-Methoxy-4-piperazin-1-yl-pyrido[3,4-d]pyrimidin-2-yl)-pyridin-2-ylamine] | < 100
N#Cc1ccnc(Nc2cc(-c3nc(N4CC[C@@H](O)[C@@H](O)C4)c4c(C5CC5)cncc4n3)ccn2)c1 (stereo in doubt) [Example 488, 2-{4-[5-Cyclopropyl-4-((3S,4R)-3,4-dihydroxy-piperidin-1-yl)-pyrido[3,4-d]pyrimidin-2-yl]-pyridin-2-ylamino}-isonicotinonitrile] | 100 to 1000
Fc1cc(Nc2cc(-c3nc(N4CCNCC4)c4c(C5CC5)cncc4n3)ccn2)c(F)c(F)n1 [Example 682, [4-(5-Cyclopropyl-4-piperazin-1-yl-pyrido[3,4-d]pyrimidin-2-yl)-pyridin-2-yl]-(2,3,6-trifluoro-pyridin-4-yl)-amine] | 100 to 1000
c1ccc2oc(Nc3cc(-c4nc(N5CCNCC5)c5c(C6CC6)cncc5n4)ccn3)nc2c1 [Example 2044, Benzooxazol-2-yl-[4-(5-cyclopropyl-4-piperazin-1-yl-pyrido[3,4-d]pyrimidin-2-yl)-pyridin-2-yl]-amine] | < 100
CCOC(=O)N1CCN(c2nc(-c3ccnc4[nH]c(C(F)(F)F)cc34)nc3cncc(C4CC4)c23)CC1 [Example 1224, 4-[5-Cyclopropyl-2-(2-trifluoromethyl-1H-pyrrolo[2,3-b]pyridin-4-yl)-pyrido[3,4-d]pyrimidin-4-yl]-piperazine-1-carboxylic acid ethyl ester] | 10000 to 40000
COc1cncc2nc(-c3ccnc(NC(=O)Cc4cccc(C#N)c4)c3)nc(N3CCOCC3)c12 [Example 389, 2-(3-Cyano-phenyl)-N-[4-(5-methoxy-4-morpholin-4-yl-pyrido[3,4-d]pyrimidin-2-yl)-pyridin-2-yl]-acetamide] | 100 to 1000

Next, values leading:

IC50 [nM] | SMILES
< 100 | Fc1ccn2nc(Nc3cc(-c4nc(N5CCNCC5)c5c(C6CC6)cncc5n4)ccn3)nc2c1 [Example 2033, [4-(5-Cyclopropyl-4-piperazin-1-yl-pyrido[3,4-d]pyrimidin-2-yl)-pyridin-2-yl]-(7-fluoro-[1,2,4]triazolo[1,5-a]pyridin-2-yl)-amine]
< 100 | COc1cccc(Nc2cc(-c3nc(N4CCNCC4)c4c(C5CC5)cncc4n3)ccn2)c1C [Example 591, [4-(5-Cyclopropyl-4-piperazin-1-yl-pyrido[3,4-d]pyrimidin-2-yl)-pyridin-2-yl]-(3-methoxy-2-methyl-phenyl)-amine]
< 100 | c1cc(-c2nc(N3CCNCC3)c3c(C4CC4)cncc3n2)c2cc(C3CC3)[nH]c2n1 [Example 1223, 5-Cyclopropyl-2-(2-cyclopropyl-1H-pyrrolo[2,3-b]pyridin-4-yl)-4-piperazin-1-yl-pyrido[3,4-d]pyrimidine]
< 100 | COc1cncc2nc(-c3ccnc(NC(C)=O)c3)nc(N3CCNCC3)c12 [Example 214, N-[4-(5-Methoxy-4-piperazin-1-yl-pyrido[3,4-d]pyrimidin-2-yl)-pyridin-2-yl]-acetamide]
< 100 | Fc1cccc(F)c1Nc1cc(-c2nc(NC3CCCNCC3)c3c(C4CC4)cncc3n2)ccn1 (stereo not drawn) [Example 2058, Azepan-4-yl-{5-cyclopropyl-2-[2-(2,6-difluoro-phenylamino)-pyridin-4-yl]-pyrido[3,4-d]pyrimidin-4-yl}-amine]
< 100 | CC1(C)CN(c2nc(-c3ccnc4[nH]c5ccccc5c34)nc3cncc(C4CC4)c23)CCN1 [Example 1255, 4-[5-Cyclopropyl-4-(3,3-dimethyl-piperazin-1-yl)-pyrido[3,4-d]pyrimidin-2-yl]-9H-pyrido[2,3-b]indole trifluoroacetic acid salt]
< 100 | CS(=O)(=O)C[C@H]1CN(c2nc(-c3ccnc(Nc4ccccc4)c3)nc3cncc(C4CC4)c23)CCN1 [Example 769, {4-[5-Cyclopropyl-4-((R)-3-methanesulfonyl-methyl-piperazin-1-yl)-pyrido[3,4-d]pyrimidin-2-yl]-pyridin-2-yl}-phenyl-amine]
< 100 | COc1cncc2nc(-c3ccnc(NC(=O)C4CCOCC4)c3)nc(N3CCNCC3)c12 [Example 218, Tetrahydro-pyran-4-carboxylic acid[4-(5-methoxy-4-piperazin-1-yl-pyrido[3,4 d]pyrimidin-2-yl)-pyridin-2-yl]-amide]
< 100 | Fc1ccc(F)c(Nc2cc(-c3nc(N4CCNCC4)c4c(C5CCC5)cncc4n3)ccn2)n1 [Example 799, [4-(5-Cyclobutyl-4-piperazin-1-yl-pyrido[3,4-d]pyrimidin-2-yl)-pyridin-2-yl]-(3,6-difluoro-pyridin-2-yl)-amine]
< 100 | C[C@@H](Nc1cc(-c2nc(N3CCNC(C)(C)C3)c3c(C4CC4)cncc3n2)ccn1)c1ccccc1 [Example 2007, {4-[5-Cyclopropyl-4-(3,3-dimethyl-piperazin-1-yl)-pyrido[3,4-d]pyrimidin-2-yl]-pyridin-2-yl}-((R)-1-phenyl-ethyl)-amine]
< 100 | Fc1cnc(Nc2cc(-c3nc(N4CCNCC4)c4c(C5CC5)cnc(Cl)c4n3)ccn2)c(F)c1 [Example 2148, [4-(8-Chloro-5-cyclopropyl-4-piperazin-1-yl-pyrido[3,4-d]pyrimidin-2-yl)-pyridin-2-yl]-(3,5-difluoro-pyridin-2-yl)-amine]
< 100 | CN1CCN(c2cccc(Nc3cc(-c4nc(N5CC[C@@H](CO)C5)c5c(C6CC6)cncc5n4)ccn3)c2)CC1 [Example 721, [(R)-1-(5-Cyclopropyl-2-{2-[3-(4-methyl-piperazin-1-yl)-phenylamino]-pyridin-4-yl}-pyrido[3,4-d]pyrimidin-4-yl)-pyrrolidin-3-yl]-methanol]
< 100 | C[C@@H](Nc1cc(-c2nc(N3CCNCC3)c3c(C4CC4)cncc3n2)ccn1)c1ccc(F)cc1 [Example 652]
